Source: patent publication US8383637B2, “2-amino-quinazoline derivatives useful as inhibitors of β-secretase (BACE)” (Jansssen Pharmaceutica N.V., priority 2004, dated 2013)
Read-outs that look alike come from different tables or passages of the source.

Molecular target: T1, β-secretase(BACE) (Homo sapiens, UniProt P56817)
T1 construct: purchased Panvera
Assay: BACE FS1% Inhibition Assay
Format: biochemical
Details: FS1 substrate
How it was run: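 Percent inhibition at each tested concentration, referenced to enzyme-free blank and vehicle-only positive control. Reaction: compound and BACE (4 μg/mL working stock) mixed 20 min at room temperature before FS1 substrate (300 μg/mL working stock), then 1 h at room temperature.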

T1 sequence (P56817 46-501): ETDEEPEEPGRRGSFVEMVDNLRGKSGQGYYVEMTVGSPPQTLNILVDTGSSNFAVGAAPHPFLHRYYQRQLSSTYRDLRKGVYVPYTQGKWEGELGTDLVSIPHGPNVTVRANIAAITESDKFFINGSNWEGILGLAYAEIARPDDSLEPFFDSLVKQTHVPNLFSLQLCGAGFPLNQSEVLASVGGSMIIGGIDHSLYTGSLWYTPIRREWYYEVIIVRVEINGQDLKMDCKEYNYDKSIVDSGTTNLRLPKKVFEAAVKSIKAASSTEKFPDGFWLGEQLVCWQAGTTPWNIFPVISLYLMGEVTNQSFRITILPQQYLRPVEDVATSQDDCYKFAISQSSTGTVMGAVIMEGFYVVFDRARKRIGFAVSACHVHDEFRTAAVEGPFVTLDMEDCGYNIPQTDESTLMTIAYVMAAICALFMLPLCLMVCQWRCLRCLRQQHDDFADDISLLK

% Inhibition (FS) 0.3 μM (0.3 μM test compound) [%] | % Inhibition (FS) 1 μM (1 μM test compound) [%] | % Inhibition (FS) 3 μM (3 μM test compound) [%] | Compound | also measured
<30 | <30 | <30 | COc1ccccc1-c1ccc2c(c1)CN(CCNC(=O)CCCN)C(N)=N2 [Compound 494] | 
<30 | <30 | <30 | CN(C(=O)c1cccc(CN2Cc3cc(-c4cn[nH]c4)ccc3N=C2N)c1)C1CCCCC1 [Compound 161] | 
94 | 116 | 123 | COc1ccccc1-c1ccc2c(c1)CN(Cc1cccc(C(=O)N(C)C3CCCCC3)c1)C(NC(C)=O)=N2 [Compound 607] | 
<30 | <30 | <30 | COc1cccc(C)c1Oc1ccc2c(c1)CN(Cc1cccc(C(=O)N(C)C3CCCCC3)c1)C(N)=N2 [Compound 468] | 
<30 | <30 | <30 | CC(C)COc1ccc2c(c1)CN(Cc1cccc(C(=O)N(C)C3CCCCC3)c1)C(N)=N2 [Compound 518] | 
<30 | <30 | <30 | NC(=O)c1ccccc1-c1ccc2c(c1)CN(CCNC(=O)C1CCCCC1)C(N)=N2 [Compound 543] | 
<30 | <30 | 31 | COc1ccccc1Oc1ccc2c(c1)CN(Cc1cccc(C(=O)N(C)C3CCCCC3)c1)C(N)=N2 [Compound 232] | 
<30 | <30 | 32 | Cc1ccc(-c2ccc3c(c2)CN(CCNC(=O)C2CCCCC2)C(N)=N3)cc1 [Compound 628] | 
56 | 87 | 104 | Cc1ccccc1-c1ccc2c(c1)CN(CCNC(=O)C1CCC1)C(N)=N2 [Compound 656] | 
<30 | <30 | 48 | COc1ccc(F)cc1-c1ccc2c(c1)CN(CCNC(=O)C1CCCCC1)C(N)=N2 [Compound 631] | 
<30 | <30 | <30 | CC(=O)Nc1ccccc1-c1ccc2c(c1)CN(CCNC(=O)C1CCCCC1)C(N)=N2 [Compound 541] | 
<30 | <30 | 56 | NC1=Nc2ccc(-c3cccc(C(F)(F)F)c3)cc2CN1CCNC(=O)CC1CCCC1 [Compound 584] | 

The next lines start with the compound.

Compound | % Inhibition (FS) 0.3 μM (0.3 μM test compound) [%] | % Inhibition (FS) 1 μM (1 μM test compound) [%] | % Inhibition (FS) 3 μM (3 μM test compound) [%] | also measured
CC(C)CCOc1ccc2c(c1)CN(Cc1cccc(C(=O)N(C)C3CCCCC3)c1)C(N)=N2 [Compound 517, 3-[2-Amino-6-(3-methyl-butoxy)-4H-quinazolin-3-ylmethyl]-N-cyclohexyl-N-methyl-benzamide] |  |  |  | inhibition at 0.3 µM (0.3 μM test compound, read-out: % Inhibition (FS) 0.3 μM): < 30%; inhibition at 1 µM (1 μM test compound, read-out: % Inhibition (FS) 1 μM): < 30%; inhibition at 3 µM (3 μM test compound, read-out: % Inhibition (FS) 3 μM): 40%
CN(C(=O)c1cccc(CN2Cc3cc(-c4ccccc4Oc4ccccc4)ccc3N=C2N)c1)C1CCCCC1 [Compound 326] | <30 | 35 | 79 | 
CN(C(=O)c1cccc(CN2Cc3cc(OC4CCCC4)ccc3N=C2N)c1)C1CCCCC1 [Compound 520] | <30 | <30 | 33 | 
NC1=Nc2ccc(Oc3ccccc3)cc2CN1Cc1cccc(C(=O)NC2CCCCC2)c1 [Compound 451] | <30 | <30 | <30 | 
NC1=Nc2ccc(-c3ccccc3Cl)cc2CN1CCNC(=O)C12CC3CC(CC(C3)C1)C2 [Compound 651] | <30 | 51 | 96 | 
CC(C)Oc1ccccc1Oc1ccc2c(c1)CN(Cc1cccc(C(=O)N(C)C3CCCCC3)c1)C(N)=N2 [Compound 478] | <30 | <30 | 46 | 
COc1ccc(-c2nc3ccccc3s2)c(Oc2ccc3c(c2)CN(Cc2cccc(C(=O)N(C)C4CCCCC4)c2)C(N)=N3)c1 [Compound 469] | <30 | <30 | <30 | 
CCc1ccccc1Sc1ccc2c(c1)CN(Cc1cccc(C(=O)N(C)C3CCCCC3)c1)C(N)=N2 [Compound 406] | <30 | <30 | 50 | 
CN(C(=O)c1cccc(CN2Cc3cc(-c4ccccc4-c4ccccc4)ccc3N=C2N)c1)C1CCCCC1 [Compound 321] | −33 | <30 | <30 | 
NC1=Nc2ccc(-c3ccccc3Cl)cc2CN1CCNC(=O)CCC(F)(F)F [Compound 682] |  |  |  | % Inhibition (FS) (0.3 μM test compound): 39%; % Inhibition (FS) (1 μM test compound): 77%; % Inhibition (FS) (3 μM test compound): 97%
CC1CCN(C(=O)CCCC(CCC(=O)N2CCC(C)CC2)N2Cc3cc(Oc4ccccc4)ccc3N=C2N)CC1 (stereo not drawn) [Compound 532] | <30 | <30 | 68 | 
CC(C)(C)C(=O)NCCN1Cc2cc(-c3ccc4ccccc4c3)ccc2N=C1N [Compound 667] |  |  |  | % Inhibition (FS) (0.3 μM test compound): 33%; % Inhibition (FS) (1 μM test compound): <30%; % Inhibition (FS) (3 μM test compound): <30%
CC(C)CC(=O)NCCN1Cc2cc(Oc3ccccc3)ccc2N=C1N [Compound 190] | 51 | 86 | 101 | 
CC(=O)Nc1cccc(-c2ccc3c(c2)CN(Cc2cccc(C(=O)N(C)C4CCCCC4)c2)C(N)=N3)c1 [Compound 166] | <30 | 37 | 74 | 
CC(C)CCC(=O)NCCN1Cc2cc(-c3cnc4ccccc4c3)ccc2N=C1N [Compound 675] |  |  |  | % Inhibition (FS) (0.3 μM test compound): 35%; % Inhibition (FS) (1 μM test compound): <30%; % Inhibition (FS) (3 μM test compound): <30%
CC(C)C(CC(=O)NC1CCCCC1)N1Cc2cc(Oc3ccccc3)ccc2N=C1N (stereo not drawn) [Compound 401] | <30 | <30 | 52 | 

Compound | % Inhibition (FS) 0.3 μM (0.3 μM test compound) [%] | % Inhibition (FS) 1 μM (1 μM test compound) [%] | % Inhibition (FS) 3 μM (3 μM test compound) [%] | also measured
CN(C(=O)c1cccc(CN2Cc3cc(-c4ccc(C(N)=O)cc4)ccc3N=C2N)c1)C1CCCCC1 [Compound 162] | <30 | <30 | <30 | 
CCCCCCCCC(CCC(=O)NC1CCCCCC1)N1Cc2cc(Oc3ccccc3)ccc2N=C1N (stereo not drawn) [Compound 208] | <30 | <30 | 67 | 
NC1=Nc2ccc(-c3cnc4ccccc4c3)cc2CN1CCNC(=O)C1CCCC1 [Compound 671] |  |  |  | % Inhibition (FS) (0.3 μM test compound): <30%; % Inhibition (FS) (1 μM test compound): 30%; % Inhibition (FS) (3 μM test compound): <30%
NC1=Nc2ccc(-c3ccccc3F)cc2CN1CCNC(=O)CCC(F)(F)F [Compound 680] |  |  |  | % Inhibition (FS) (0.3 μM test compound): 42%; % Inhibition (FS) (1 μM test compound): 75%; % Inhibition (FS) (3 μM test compound): 90%
NC1=Nc2ccc(Oc3ccccc3)cc2CN1CC1CCN(C(=O)C2CCCCC2)CC1 [Compound 525] | <30 | <30 | 70 | 
NC1=Nc2ccc(Oc3ccccc3)cc2CN1C(CC(=O)NC1C2CC3CC(C2)CC1C3)C1CCCCC1 (stereo not drawn) [Compound 314] | <30 | 45 | 85 | 
CN(C(=O)CCC(CO)N1Cc2cc(Oc3ccccc3)ccc2N=C1N)C1CCCCC1 (stereo not drawn) [Compound 557] | <30 | <30 | <30 | 
CSc1ccc(Sc2ccc3c(c2)CN(Cc2cccc(C(=O)N(C)C4CCCCC4)c2)C(N)=N3)cc1 [Compound 413] | <30 | <30 | 53 | 
CN(C(=O)CC(c1ccccc1)N1Cc2cc(F)ccc2N=C1N)C1CCCCC1 (stereo not drawn) [Compound 803] |  |  |  | inhibition at 0.3 µM (0.3 μM test compound, read-out: % Inhibition (FS)): < 30%; inhibition at 1 µM (1 μM test compound, read-out: % Inhibition (FS)): < 30%; inhibition at 3 µM (3 μM test compound, read-out: % Inhibition (FS)): < 30%
CCCC(CNC(=O)C1CCCCC1)N1Cc2cc(Oc3ccccc3)ccc2N=C1N (stereo not drawn) [Compound 554] |  |  |  | % Inhibition (FS) 0.3 μM (0.3 μM test compound, 0.3 µM): <30%; % Inhibition (FS) 1 μM (1 μM test compound, 1 µM): <30%; % Inhibition (FS) 3 μM (3 μM test compound, 3 µM): 42%
CN(C(=O)c1cccc(CN2Cc3cc(Oc4cccnc4)ccc3N=C2N)c1)C1CCCCC1 [Compound 230] | <30 | 33 | <30 | 
NC1=Nc2ccc(Oc3ccccc3)cc2CN1CC1CCN(C(=O)C23CC4CC(CC(C4)C2)C3)CC1 [Compound 527] | <30 | <30 | 51 | 
CN(C(=O)CCC(C1CCCCC1)N1Cc2cc(Oc3ccccc3)ccc2N=C1N)C1(C(=O)O)CCCCC1 (stereo not drawn) [Compound 741] |  |  |  | % Inhibition (FS) (0.3 μM test compound): −48%; % Inhibition (FS) (1 μM test compound): −38%; % Inhibition (FS) (3 μM test compound): −25%
CN(C(=O)c1cccc(CN2Cc3cc(Oc4ccccc4-c4ccccc4)ccc3N=C2N)c1)C1CCCCC1 [Compound 234] | <30 | 57 | 43 | 
NC1=Nc2ccc(-c3ccccc3)cc2CN1CCNC(=O)C1CCC(C(F)(F)F)CC1 (stereo not drawn) [Compound 701] |  |  |  | % Inhibition (FS) (0.3 μM test compound): <30%; % Inhibition (FS) (1 μM test compound): <30%; % Inhibition (FS) (3 μM test compound): 54%
CC(=O)N1CCC(C(=O)NCCN2Cc3cc(-c4ccccc4)ccc3N=C2N)CC1 [Compound 702] |  |  |  | % Inhibition (FS) (0.3 μM test compound): <30%; % Inhibition (FS) (1 μM test compound): <30%; % Inhibition (FS) (3 μM test compound): <30%
